The record followed here is patent US9150512B2, “Tricyclic lactam derivatives as 11-beta hydroxysteroid dehydrogenase inhibitors” (Janssen Pharmaceutica NV, priority 2004, dated 2015).

As a reminder, the melting point is the temperature of the solid-liquid transition.

In data set [1] the target is hHSD1 (Homo sapiens, UniProt P28845). Put plainly: Enzymatic assay, 11b-HSD1 reductase activity (conversion of cortisone into cortisol), recombinant protein. Format: biochemical. Particulars: 2 μM cortisone, 180 μM NADPH, pH 7.2, pIC50 scored, read-out: [C1] hHSD1 reductase Score. As to the method: The effects of compounds on 11b-HSD1 dependent conversion of cortisone into cortisol (reductase activity) was studied in a reaction mixture containing 30 mM Tris-HCl buffer pH 7.2, 180 μM NADPH, 1 mM EDTA, 2 μM cortisone, 1 μl drug and/or solvent and 11 μg recombinant protein in a final volume of 100 μl.
Chain of hHSD1 (P28845 whole entry): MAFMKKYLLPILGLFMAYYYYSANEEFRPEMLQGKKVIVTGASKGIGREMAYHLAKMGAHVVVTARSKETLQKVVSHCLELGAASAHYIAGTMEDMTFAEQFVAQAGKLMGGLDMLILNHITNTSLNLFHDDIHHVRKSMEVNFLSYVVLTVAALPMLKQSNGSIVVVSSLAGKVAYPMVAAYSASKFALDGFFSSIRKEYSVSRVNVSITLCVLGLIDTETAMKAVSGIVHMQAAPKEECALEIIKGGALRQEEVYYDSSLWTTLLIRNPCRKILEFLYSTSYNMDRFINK
All incubations were performed for 45 min at 37 C in a water bath. The reaction was stopped by adding 100 μl acetonitrile containing 20 μg corticosterone as internal standard. After centrifugation, the product formation was analysed in the supernatant by HPLC on a Hypersyl BDS-C18 column using 0.05 mM ammonium acetate/methanol (50/50) as solvent. In all of the aforementioned assays, the drugs to be tested were taken from a stock solution and tested at a final concentration ranging from −10^−5M to 3·10^−9M. From the thus obtained dose response curves, the pIC50 value was calculated and scored as follows; Score 1=pIC50 value<5, Score 2=pIC50 value in the range of 5 to 6, Score 3=pIC50 value>6. (in this table NT stands for Not Tested).

The target in data set [2] is T1, 11b-HSD1 (Mus musculus, UniProt P50172).
T1 construct: endogenous in cells; host or cells: 3T3-L1 (ATCC-CL-173), differentiated into adipocytes
T1 sequence (P50172 whole entry): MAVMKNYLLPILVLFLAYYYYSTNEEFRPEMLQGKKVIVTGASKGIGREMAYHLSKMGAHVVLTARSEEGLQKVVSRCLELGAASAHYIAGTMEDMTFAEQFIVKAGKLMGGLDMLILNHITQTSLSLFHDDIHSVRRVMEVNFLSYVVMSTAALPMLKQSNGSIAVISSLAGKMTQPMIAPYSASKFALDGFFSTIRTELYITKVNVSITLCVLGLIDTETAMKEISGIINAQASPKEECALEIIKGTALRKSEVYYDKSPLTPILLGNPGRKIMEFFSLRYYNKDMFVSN
The data set can be described thus: Cellular assay, 11b-HSD1 activity in differentiated 3T3-L1 cells. Format: cell-based. Particulars: 4 hour pre-incubation, pIC50 scored, read-out: [C2] HSD1 cellular 3T3-L1 Score. How it is done: The effects on 11b-HSD1 activity was measured in differentiated 3T3-L1 cells and rat hepatocytes.
Mouse fibroblast 3T3-L1 cells (ATCC-CL-173) were seeded at a density of 16500 cells/ml in 12 well plates and grown for 7 days in DMEM medium (supplemented with 10% heat inactivated foetal calf serum, 2 mM glutamine and 25 mg gentamycin) at 37° C. in a humidified 5% CO2 atmosphere. Medium was refreshed twice a week. Fibroblasts were differentiated into adipocytes at 37° C. in a 5% CO2 humidified atmosphere in growth medium containing 2 μg/ml insulin, 55 μg/ml IBMX and 39.2 μg/ml dexamethasone.
Primary hepatocytes from male rats were seeded on normal Falcon 12 well plates at a density of 250000 cells/well and incubated for 16 hours at 37° C. in a 5% CO2 humidified atmosphere in DMEM-HAM's F12 medium containing 5% Nu-serum, 100 U/ml penicillin, 100 μg/ml streptomycin, 0.25 μg/ml amphotericin B, 50 μg/ml gentamycin sulfate, 5 μg/ml insulin and 392 ng/ml dexamethasone. Following a 4 hour pre-incubation with test compound, 0.5 μCi ^3H-cortisone or dehydrocorticosterone, was added to the 3T3-L1 cultures. One hour later, the medium was extracted on Extrelut^3-columns with 15 ml diethyl ether and the extract was analysed by HPLC as described above. The effects of JNJ-compounds on rat hepatocyte HSD1 activity was measured after an incubation period of 90 minutes with 0.5 μCi^3H-dehydrocorticosterone. Corticosterone formation was analysed by HPLC.
(§1) As for the enzymatic assays, the compounds to be tested were taken from a stock solution and tested at a final concentration ranging from −10^−5M to 3·10^−9M. From the thus obtained dose response curves, the pIC50 value was calculated and scored as follows; Score 1=pIC50 value<5, Score 2=pIC50 value in the range of 5 to 6, Score 3=pIC50 value>6. (in this table NT stands for Not Tested).

For data set [3], the target named is T2, 11b-HSD2 (Homo sapiens, UniProt P80365).
T2 construct: endogenous in cells; host or cells: HepG2 (ATCC HB-8065)
T2 sequence (P80365 1-405): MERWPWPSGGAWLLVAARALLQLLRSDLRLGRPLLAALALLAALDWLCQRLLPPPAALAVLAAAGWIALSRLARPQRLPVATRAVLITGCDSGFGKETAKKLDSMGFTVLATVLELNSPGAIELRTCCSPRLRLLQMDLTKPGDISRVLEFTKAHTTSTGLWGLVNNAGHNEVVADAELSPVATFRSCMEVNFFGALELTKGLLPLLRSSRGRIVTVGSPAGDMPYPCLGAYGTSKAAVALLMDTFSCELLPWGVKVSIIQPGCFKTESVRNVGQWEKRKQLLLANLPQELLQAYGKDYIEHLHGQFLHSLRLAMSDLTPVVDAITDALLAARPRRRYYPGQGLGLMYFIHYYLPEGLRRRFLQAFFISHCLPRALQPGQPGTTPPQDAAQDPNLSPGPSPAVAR
Put plainly: Cellular assay, 11b-HSD2 activity in HepG2 cells. Format: cell-based. Particulars: 4 hour pre-incubation, pIC50 scored, read-out: [C2] HSD2 cellular HepG2 Score. As to the method:
The effects on 11b-HSD2 activity was studied in HepG2 and LCC-PK1-cells HepG2-cells (ATCC HB-8065) were seeded in 12 well plates at a density of 100,000 cells/ml and grown at 37° C. in a humidified 5% CO2 atmosphere in MEM-Rega-3 medium supplemented with 10% heat inactivated foetal calf serum, 2 mM L-glutamine and sodium bicarbonate). Medium was refreshed twice a week.
Following a 4 hour pre-incubation with test compound, 0.5 μCi ^3H-cortisol or corticosterone, was added to the cultures. One hour later, the medium was extracted on Extrelut^3-columns with 15 ml diethyl ether and the extract was analysed by HPLC as described above.
as §1

Take `O=C1N2CCc3ccccc3C2CN1[C@H]1[C@@H]2CC3C[C@H]1C[C@](O)(C3)C2` (stereo partly shown) [Compound 24]: the melting point lay in the range of 235 to 237 °C. For the same compound, in data set [1], the IC50 was less than 1000 nM. Also, the IC50 in data set [2] was less than 1000 nM. For the same compound, the IC50 in data set [3] was less than 1000 nM.

Turning to `O=C1N2CCc3ccccc3C2CN1[C@@H]1[C@@H]2CC3C[C@H]1C[C@](O)(C3)C2` (stereo partly shown) [Compound 25], the melting point fell in the range of 210 to 212 °C. For the same compound, the IC50 in data set [1] is 1000 to 10000 nM. Besides, the IC50 in data set [2] was less than 1000 nM.
